Data set [1] concerns HT-29 cells. Put plainly: Cell cycle (DNA content) analysis with CyteSeer, HT-29. Format: cell-based, human. The protocol: (§1) For western blot analysis, cells were treated with the indicated inhibitors for 48 h and the whole cell extracts were obtained as described previously. Twenty micrograms of lysates were resolved on a 10% polyacrilamide SDS-PAGE followed by western blot analysis performed as previously described. For immunofluorescence assays cells were grown for 24 h on glass coverslips and treated with the indicated inhibitors for 48 h. Cells were fixed with 4% PFA for 15 min, permeabilized with 0.5% […] and incubated with E-cadherin antibody for 2 h. Coverslips were incubated with fluorescein-tagged secondary antibody (Dakopatts, Sweden) for […]. Finally coverslips were mounted with ProLong Gold antifade reagent (LifeTech, UK) and images were taken in epifluorescence microscope (Olympus) using 40× objective. Immunofluorescence of E-cadherin and DNA content analysis for FIGS. 22-23 were performed culturing of HT-29 human colorectal adenocarcinoma cell line in 384-well plates with densities of 3,000 cells per well in a total volume of 25 μl. After the completion of the staining, four images (2×2 array) of each well were taken with Vala Sciences' SIM™ with a 20× objective. Each image was acquired as a SIM Synthetic Focus with a z-stack range of 6 μm with 1 μm steps. The SIM Synthetic Focus feature will compile a “best focus” images from multiple images. One set of SIM Synthetic Focus images were taken in the DAPI channel for Hoechst 33342 staining, and another set of images were taken in the FITC channel for anti-E-cadherin-AlexaFluor488 labeling and analysed by Structured Illumination Microscopy (SIM™) platform to image the cells and Vala's CyteSeer® Cell-Cell Junction Algorithm to quantify the degree of expression and intracellular location of E-cadherin Vala's CyteSeer® Software can also measure relative DNA content by analyzing Total Integrated Intensity (TII) of the Nuclear Image (Ni) on the Nuclear Mask (Nm). This analysis was performed by Vala Science. Twenty compounds from were assayed in a “blinded” manner, at 2 test concentrations in 6 replicate wells for first assay and 3 replicate for second assay.

The test system of data set [2] is HT-29 human colorectal adenocarcinoma cell line. Put plainly: E-cadherin at cell-cell contacts, Vala SIM / CyteSeer Cell-Cell Junction Algorithm, HT-29. The data set is classed as cell-based. The note with it: for increase of E-cadherin expression levels: 24 hours; for E-cadherin levels at cell-cell contacts: 48 hours, vs DMSO vehicle control. The protocol: as §1

For data set [3], the system named is HT-29 cells. Put plainly: Immunofluorescence of E-cadherin, HT-29. The following applies: for E-cadherin expression at cell-cell contacts (immunofluorescence, Image J): 48 hours, 5-100 μM, vs DMSO vehicle control. Format: cell-based, human. As for the experimental part: as §1
In data set [4] the test system is LoVo cells. Put plainly: BrdU proliferation assay, LoVo. The data set is classed as cell-based. The note with it: 48 h. The protocol: (§2) For BrdU assays, 1×10^4 of indicated cells were plated per well into a 96-well plate. After 24 h, cells were treated with the indicated inhibitors for 48 h. Three independent experiments were plated with six replicates per each condition. Cells were treated with […] BrdU for 2 h. BrdU incorporation into newly synthesized DNA was measured using a cell proliferation colorimetric immunoassay kit according to the manufacturer's instructions (Roche, Switzerland). Results are expressed as mean±S.D. Results are represented as percentage of positive cells (mean±S.D) of three independent experiments.

The subject of the next data set is epithelial MDCK cells. Briefly: Phase-contrast cell phenotype, MDCK. The data set is classed as cell-based. The protocol: (§3) MDCK, HEK293T, HepG2, MCF7 and ACHN cells were cultured in Dulbecco's Modified Eagles Medium (DMEM). MDCK stably expressing Hakai cells (Hakai-MDCK) were previously reported and were growth in DMEM with G418 (800 μg/ml). […] LoVo and PC-3 cells were cultured in F-12K Medium (Kaighn's Modification of Ham's F-12 Medium) and HT-29 and HCT116 cells in McCoy's 5a Medium Modified. 5637 cells were cultured in RPMI medium. All culture media were supplemented with 1% penicillin/streptomycin and 10% of heat-inactivated fetal bovine serum (FBS) at 37° C. in a humidified incubator with 5% CO2. Cells were monthly tested for mycoplasma contamination and used only for 1-3 months after defrosted. LoVo and HT29 cells were authenticated with the StemElite ID system (Promega). For phase-contrast images, culture cells were photographed with a Nikon Eclipse-TI microscope.

The subject of the next data set is HT29 cells. Briefly: BrdU proliferation assay, HT29. The note with it: 48 h. The data set is classed as cell-based, human. As for the experimental part:
as §2

The test system of data set [5] is Hakai-transformed MDCK cells. Put plainly: Phase-contrast cell phenotype, Hakai-MDCK. Format: cell-based. The following applies: Hakai-transformed MDCK cells (mesenchymal phenotype). As for the experimental part: as §3
Data set [6] relates to HT-29 cells. Put plainly: Phase-contrast cell phenotype, HT-29. The data set is classed as cell-based, human. The protocol: as §3
Data set [7] relates to Hakai-MDCK cell lines (clone 4 and clone 11). Briefly: MTT cell viability assay, Hakai-MDCK. The following applies: Hakai-MDCK clone 4 and clone 11, compared with MDCK. Format: cell-based. As for the experimental part:
(§4) For cytotoxicity assays, 1×10^4 cells were seeded per well into a 96-well plate. After 24 h cells were treated with the indicated inhibitors for 72 h and a MTT colorimetric cell viability assay was performed following manufacturer's instructions (Sigma Aldrich, St Louis, Mo.). Absorbance was measured at 570 and 630 nm using a Multiskan Plus Reader (Nanoquant Infinite M200 Tecan Trading AG, Switzerland). Dose-response curves were designed with Graph Pad Prism Software and the half-maximal inhibitory concentration (IC50) values were calculated. Represented data are the mean±SEM of at least three independent experiments with six replicates per condition.
For orientation: Formazan colour is commonly taken as a measure of viable cells.

Data set [8] deals with T1, E3 ubiquitin-ligase Hakai (Mus musculus, UniProt Q9JIY2).
T1 construct: expressed in transfected cells; host or cells: HEK293T
T1 sequence (Q9JIY2 1-491): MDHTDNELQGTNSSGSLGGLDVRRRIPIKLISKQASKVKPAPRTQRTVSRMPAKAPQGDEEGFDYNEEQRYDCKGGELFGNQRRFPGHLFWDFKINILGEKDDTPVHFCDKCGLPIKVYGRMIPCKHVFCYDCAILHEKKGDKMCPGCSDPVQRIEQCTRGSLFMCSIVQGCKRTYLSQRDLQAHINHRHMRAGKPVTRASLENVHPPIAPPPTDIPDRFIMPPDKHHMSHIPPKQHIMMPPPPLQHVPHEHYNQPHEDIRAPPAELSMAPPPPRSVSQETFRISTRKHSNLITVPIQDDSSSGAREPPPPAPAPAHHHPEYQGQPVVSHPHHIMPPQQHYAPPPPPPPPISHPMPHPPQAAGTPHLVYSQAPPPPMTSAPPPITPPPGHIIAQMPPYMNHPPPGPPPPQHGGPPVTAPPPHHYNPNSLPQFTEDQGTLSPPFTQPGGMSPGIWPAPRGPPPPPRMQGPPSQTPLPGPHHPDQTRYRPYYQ
Briefly: In vivo Hakai-dependent ubiquitination assay in 293T cells. Format: cell-based. The note with it: vs DMSO; for Hakai-induced ubiquitination: HEK293T cells transfected with Hakai and ubiquitin. As for the experimental part:
For ubiquitination assays, 750.000 HEK293T cells were seeded in 6-well cell culture plates and after 24 h were transfected with 0.25 μg Src, 0.75 μg Flag-Hakai, and 0.5 μg HA-ubiquitin with Lipofectamin 2000 (Invitrogen, UK). Six hours after transfection cells were treated with indicated concentrations of Hakin-1, Hakin-5 or the rest of the compounds tested for 36 h. Whole cell extracts were obtained in lysis buffer (20 mM Tris-HCl pH 7.5, 150 mM NaCl and 1% Triton X-100) containing 10 μg/ml leupeptin, 10 μg/ml aprotinin and 1 mM phenylmethanesulphonyl fluoride (PMSF), supplemented with 10 mM N-ethylmaleimide. Cells were harvested and subjected to western blotting using anti-HA antibody to detect ubiquitination.

Data set [9] relates to LoVo cells. Put plainly: Phase-contrast cell phenotype, LoVo. Format: cell-based. The protocol: as §3
Data set [10] concerns normal epithelial MDCK cell line. Briefly: MTT cell viability assay, MDCK. The note with it: compared with Hakai-MDCK. The data set is classed as cell-based. The protocol: as §4
The subject of data set [11] is HT-29 cells. Put plainly: Western blotting of EMT markers, HT-29. The data set is classed as cell-based, human. The note with it: 48 h. The protocol: as §1
On the technique in general: A western blot detects proteins with antibodies after separation by electrophoresis.

The subject of the next data set is HT29 cell line. Put plainly: Invasion assay, HT29 (dose/response). Format: cell-based, human. The following applies: for cell invasion: treated 48 h, 1 μM, 10 μM, 50 μM, vs DMSO. The protocol:
[The procedure below names another cell line; the source lists this cell line under the same test.] For invasion assays, cells were treated with Hakin-1 or DMSO as vehicle for 48 h using 1% FBS during the last 24 hours. 3×10^5 MDCK, MDCK-Hakai or LoVo cells were seeded in a cell invasion chamber (Cell invasion assay kit, Chemicon International) containing medium with 2% FBS. After 72 hours for MDCK and MDCK-Hakai Invasive and 16 h for LoVo cells, invasive cells invaded that reach the lower chamber containing 30% FBS were fixed and stained with crystal violet (Sigma Aldrich, St Louis, Mo.) following the manufacturer's specifications. For migration assays, HT29 cells were cultured with Hakin-1 or DMSO as vehicle for 48 h, using medium without serum the last 24 h. In the cell migration chamber were seeded 3×10^5 HT29 cells (Cell migration kit, Millipore, Bedford, Mass.) containing medium without serum. After 16 h, migrated cells in the lower chamber containing serum with 30% FBS were stained with crystal violet and counted following the manufacturer's specifications. For both invasion and migration assays cells were counted in five fields photographed with an Olympus microscope using a 20× objective, experiments were performed in triplicates for each condition and the assays were repeated at least three times. Results are expressed as mean±SD.

Data set [12] concerns HCT116 colon cancer cells. Briefly: MTT cell viability assay, HCT116. The data set is classed as cell-based, human. The note with it: concentrations tested in the previous assays. As for the experimental part:
as §4

Data set [13] relates to non-cancerous HEK293T cells. Put plainly: MTT cell viability assay, HEK293T. The data set is classed as cell-based, human. The following applies: concentrations tested in the previous assays. As for the experimental part: as §4
The subject of data set [14] is Colon cancer HCT116 cells. Put plainly: BrdU proliferation assay, HCT116. The data set is classed as cell-based, human. The following applies: 48 h. The protocol: as §2

We go through six molecules from patent US20230181535A1, “UBIQUITIN-LIGASE INHIBITORS FOR THE TREATMENT OF CANCER” (FUNDACIÓN PROFESOR NOVOA SANTOS, priority 2020, published 2023).

Take `COC(=O)Nc1nc2ccc(C(=O)c3cccs3)cc2[nH]1` [nocodazole]: the cell cycle entry in the data set with HT-29 cells [1] (24 hours, vs DMSO vehicle control) is on record as “dramatic shift towards G2/M phase arrest”. The “increase of E-cadherin expression levels” value was 32% in data set [2] (250 ng/ml), 42% in data set [2] (500 ng/ml) and 47% in data set [2] (1000 ng/ml).
Regarding `CC(/C=C/C(=O)O)=C\CC(O)/C(C)=C/CCC(C)C(C)O` (stereo not shown) [Hakin-5, (2E,4E,8E)-7,13-Dihydroxy-4,8,12-trimethyl-2,4,8-tetradecatrienoic acid, reference compound], the “E-cadherin levels at cell-cell contacts (immunofluorescence)” value in the data set on HT-29 cells [3] (48 h, vs DMSO) is given as “no effect by western-blotting or immunofluorescence was detected on E-cadherin protein levels”. For the same molecule, the “cell proliferation (BrdU)” value in the data set on LoVo cells [4] and in the data set with HT29 cells was “no effect was seen” throughout. The “cell phenotype by phase contrast” value in the data set with epithelial MDCK cells was “no effect was observed”; in data set [5], “induction of an epithelial phenotype”; with HT-29 cells [6], “modestly induce an epithelial phenotype”; with LoVo cells [9] it was “modestly induce an epithelial phenotype”. In addition, the “sensitivity to treatment (cell viability, MTT)” value was “more sensitive” in data set [7] and “more resistant” in data set [10]. Moreover, in [8] (293T cells transfected with Src, Flag-Hakai and HA-ubiquitin, western blotting anti-HA), the “ubiquitination mediated by Hakai” value is recorded as “no effect was detected on Hakai-mediated ubiquitination”. In the data set on HT-29 cells [11] (HT29), the “EMT markers expression (E-Cadherin, Cortactin, Hakai)” value is “does not affect the EMT markers expression”. Further, the “E-cadherin levels (western blotting)” value in the data set with HT-29 cells [11] (HT-29) is “no effect by western-blotting or immunofluorescence was detected on E-cadherin protein levels”.
`O=C(O)c1ccc(-n2nnnc2SC(c2ccccc2)c2ccc(Cl)cc2)cc1` (stereo not shown) [Compound K1]: in the data set with HT-29 cells [1] (100 μM, 48 hours), the cell cycle entry is “arrested the cells in G0/G1 phase” and the cell numbers result is “reduced the cell numbers”. Moreover, the cell invasion result with HT29 cell line was “reduce cell invasion”. Besides, in data set [12], the “cytotoxic effect (cell viability, MTT)” value is “no cytotoxic effect”. Further, the “cytotoxic effect (cell viability, MTT)” value in [13] is “no cytotoxic effect”. Also, the “E-cadherin levels at cell-cell contacts” value in data set [2] (100 μM) was “significantly increased E-cadherin levels at cell-cell contacts”. Further, the Hakai-induced ubiquitination result in data set [8] is “reduced ubiquitination at 20 μM and 100 μM”.
Consider `Cc1ccc(CNC(=O)CSc2nc3sccc3c(=O)n2-c2ccc(C(=O)O)cc2)cc1` [Compound K8], for which the “E-cadherin expression at cell-cell contacts (immunofluorescence, Image J)” value with HT-29 cells [3] is given as “increase E-cadherin levels at cell-cell contacts”. Moreover, the “cell proliferation (BrdU)” value in [14] was “inhibit cell proliferation”. For the same molecule, the IC50 in the data set with HT29 cell line (Homo sapiens, HT-29, treated 48 h, read-out: concentration at which 50% inhibition of invasion was achieved) is approximately 1000 nM. Besides, the cell invasion result in the data set on HT29 cell line was “reduce cell invasion”. The results for the “cytotoxic effect (cell viability, MTT)” value in data set [12] and in data set [13] were “inhibitory response in cancer cells” and “no effect was detected in non-tumour cells”, respectively. Also, the Hakai-induced ubiquitination result in data set [8] is “reduce ubiquitination at 20 μM”.
As to `Cc1ccc(NC(=O)CSc2nnnn2-c2cccc(C(=O)O)c2)cc1C` [Compound K2], in the data set with HT-29 cells [1] (100 μM, 48 hours), the cell cycle result is on record as “arrested the cells in G0/G1 phase” and the cell numbers entry is given as “reduced the cell numbers”. Moreover, in [2] (100 μM or 20 μM), the “E-cadherin levels at cell-cell contacts” value was “Significant differences were also detected”.
In the case of `O=C(O)c1ccc(-n2nnnc2SC2CCc3ccccc3NC2=O)cc1` (stereo not shown) [Compound K33], the “E-cadherin expression at cell-cell contacts (immunofluorescence, Image J)” value in the data set on HT-29 cells [3] is “increase E-cadherin levels at cell-cell contacts”.
